The subject of assay [1] is PAF. Put plainly: PAF-antagonist activity, test not specified. Particulars: ranking in words, no test named.
The target of assay [2] is T1, PAF binding to its specific receptor binding site on rabbit platelet plasma membranes (Oryctolagus cuniculus, UniProt G1TEI7).
T1 construct: from tissue; host or cells: rabbit platelet plasma membranes
Put plainly: Inhibition of 3H-PAF binding to platelet plasma membrane (isotopic labeling and filtration). Particulars: for inhibition at 30000 µM: dose 30 mM; for inhibition at 30 µM: dose .03 mM. How it is done: In vitro, they inhibit PAF-induced functions in both the cellular and tissue levels by disturbing the PAF binding to its specific receptor site. The ability of a compound of formula (I) to inhibit the PAF binding to its specific receptor binding site on rabbit platelet plasma membranes was measured by an assay developed by us.
The inhibition of H^3-PAF binding to human or rabbit platelet plasma membrane by a PAF-antagonist of Formula (I) was determined by a method employing isotopic labeling and filtration techniques. Generally, a series of Tris-buffered solutions of the selected antagonist at predetermined concentrations were prepared. Each of these solutions contains 1 pmole of ^3H-PAF, a known amount of the test antagonist, and a sufficient amount of the pH 7.0 Tris-buffer solution (10mM Tris, 0.25% bovine serum albumin, and 10 mM MgC12 per ml water) to make the final volume of 1 ml. After adding into a set of test tubes each with 100 αg of the platelet plasma […] suspension and one of the Tris-buffer solutions described above, the resulting mixture in each test tube was incubated at 0 C for about one hour or until the reaction was complete. Two control samples, one of which (Ci) contains all the ingredients described above except the antagonist and the other (C2) contains C1 plus a 1000-fold excess of unlabeled PAF, were also prepared and incubated simultaneously with the test samples. After the incubation was completed, the contents of each test tube were filtered under vacuo through a Whatman GF/C fiberglass filter and the residue washed rapidly several times with a total of 20 ml cold (0°-5°C) Tris-buffer solution. Each washed residue was then suspended in 10 ml scintillation solution (Aquasol 2, New England Nuclear, Connecticut) and the radioactivity was counted in a Packard Tri-Carb 460CD Liquid Scintillation System. Defining the counts from a test sample as "Total binding with antagonist"; the counts from the control sample C1, as "Total binding C1"; and the counts from the control sample C2 as "non-specific binding C2", the percent inhibition of each test antagonist can be determined by the following equation: [formula] Specific binding =(Total binding C1)-(non-specific binding C2)

Assay [3] has as its system PAF-induced symptoms including decreased arterial blood flow, increased vascular permeability and increased degranulation in rats. Put plainly: Oral activity of PAF-antagonists in inhibiting PAF-induced symptoms in rats. It counts as in vivo. Particulars: oral dose 1 mg/kg, male rats weighing about 190-220g. As for the experimental part:
• 1.) Fast rats overnight. • 2.) Weigh the rats the morning after fasting, • 3.) Suspend a test compound in 0.5% methylcellulose with 12 ounce hand homogenizer or a sonicator if necessary to yield a fine suspension. […] After the beginning of the PAF infusion as well as just before the PAF infusion, measure the following three parameters for each blood sample: • a) the arterial blood flow rate: determined by measuring the time to fill a pre-calibrated 14 µl capillary tube; • b) the vascular permeability: measured by calculating the increased hematocrit which results from loss of plasma from the circulation to extra-vascular spaces. • c) the circulatory degranulation: determined by assaying the increased plasma level of N-acetylglucosaminidase, a marker lysosomal enzyme. • 7.) Determine the percent change in each parameter of a blood sample at each post-PAF interval including the 30 minute interval, relative to the pre-PAF blood values. • 8.) Calculate the percent inhibition by the formula: % inhibition = [formula]

Here are results for five molecules from patent EP0365089A2, “2-Aryl-5(3-methoxy-5-(hydroxypropylsulfonyl)-4-propoxyphenyl) tetrahydrothiophen and analogs” (MERCK & CO. INC., priority 1988, dated 1990).

T1 sequence (G1TEI7 1-342): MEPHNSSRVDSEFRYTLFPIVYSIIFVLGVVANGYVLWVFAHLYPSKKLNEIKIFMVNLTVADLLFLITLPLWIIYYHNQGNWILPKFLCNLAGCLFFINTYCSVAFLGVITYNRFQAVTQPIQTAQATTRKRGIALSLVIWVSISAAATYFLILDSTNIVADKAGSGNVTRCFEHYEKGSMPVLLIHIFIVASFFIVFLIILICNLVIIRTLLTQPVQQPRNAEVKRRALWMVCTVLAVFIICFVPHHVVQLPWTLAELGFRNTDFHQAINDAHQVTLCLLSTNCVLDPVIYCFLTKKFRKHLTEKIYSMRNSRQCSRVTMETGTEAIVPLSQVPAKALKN

As usually defined, the inhibition is the drop in the measured response relative to a control, in per cent. Read a low inhibition as a response near the control. In the case of `CCOc1c(OC)cc([C@H]2CC[C@H](c3cc(OC)c(OC)c(OC)c3)S2)cc1C(=O)Nc1cccc(Cl)c1` (relative stereo) [(3-chlorophenyl-aminocarbonyl)phenyl, trans-2-(3,4,5-trimethoxyphenyl)-5-(3-methoxy-4-ethoxy-5-(3-chlorophenylaminocarbonyl)-phenyl)tetrahydrothiophene], in assay [1], the PAF-antagonist activity result was “most active”. This molecule gave an inhibition at 30000 µM in assay [2] of 6%.
In the case of `COc1cc(C2CCC(c3cc(OC)c(OC)c(OC)c3)S2)cc(OC)c1OC` (centres unmarked) [same as Ar], in assay [2], the inhibition at 30 µM is 69%.
In turn, `CCCOc1c(C#N)cc([C@H]2CC[C@H](c3cc(OC)c(OC)c(OC)c3)S2)cc1OC` (relative stereo) [3-cyano-4-propoxy-5-methoxyphenyl, trans-2-(3,4,5-trimethoxyphenyl)-5-(5-cyano-3-methoxy-4-propoxyphenyl)-tetrahydrothiophene] yielded an inhibition at 30000 µM in assay [2] of 27%.
In assay [2] (dose 1 mM), `COc1cc(C2CCC(c3cc(OC)c(OC)c(OC)c3)S2)cnc1OC` (centres unmarked) [5,6-di-methoxy-3-pyridyl] showed an inhibition at 1000 µM of 80%. This molecule registered an inhibition at 5000 µM in assay [2] (dose 5 mM) of 96%.
On to `CCCOc1c(OC)cc([C@H]2CC[C@H](c3cc(OC)c(OC)c(OC)c3)S2)cc1S(=O)(=O)CC(C)O` (relative stereo) [Trans-2-(3,4,5-trimethoxyphenyl)-5-(3-methoxy-5-(2-hydroxypropylsulfonyl)-4-propoxyphenyl)-tetrahydrothiophene], for which, in assay [1], the PAF-antagonist activity result is reported as “most active”. Besides, in assay [3], the “%inhibition A = increased vascular permeability” value turned out to be 60% and the “%inhibition B = increased degranulation” value is reported as 62%. Further, the inhibition at 3 µM in assay [2] (dose .003 mM) amounted to 57%. The molecule further came in with an inhibition at 30 µM in assay [2] of 89%.
